A short description of this series: Caco-2 permeability assay. The series is classed as in vitro ADME. Conditions: human, apical to basolateral, 2 μM test concentration, 2 h at 37° C., read-out: Caco-2 permeability PappA-B. The text has this:
Caco-2 Permeability Assay:
The in vitro permeation of a test compound across a Caco-2 cell monolayer is a well-established assay system to predict the permeability from the gastro-intestinal tract [cf. P. Artursson and J. Karlsson: Correlation between oral drug absorption in humans and apparent drug permeability coefficients in human intestinal epithelial (Caco-2) cells, Biochem. Biophys. 175 (3), 880-885 (1991)]. The permeability of the compounds of the present invention in such Caco-2 cells was determined as described below:
Human Caco-2 cells (ACC No. 169, DSMZ, German Collection of Microorganisms and Cell Cultures, Braunschweig, Germany) are seeded on 24-well insert plates and are allowed to grow for 14-16 days. For permeability studies, the test compounds are dissolved in DMSO and diluted to the final test concentration of 2 μM with transport buffer [Hanks' Buffered Salt Solution, Gibco/Invitrogen, further supplemented with glucose (final concentration 19.9 mM) and HEPES (final concentration 9.8 mM)]. For determination of the apical to basolateral permeability (PappA-B), the test compound solution is added to the apical side of the cell monolayer and transport buffer to the basolateral side of the monolayer; for determination of the basolateral to apical permeability (PappB-A), the test compound solution is added to the basolateral side of the cell monolayer and transport buffer to the apical side of the monolayer. Samples are taken from the donor compartment at the beginning of the experiment to confirm mass balance. After an incubation of 2 h at 37° C., samples are taken from both compartments. Samples are analyzed by LC-MS/MS, and the apparent permeability coefficients are calculated. Lucifer Yellow permeability is assayed for each cell monolayer to ensure cell monolayer integrity, and the permeability of Atenolol (low permeability marker) and Sulfasalazine (marker for active excretion) is determined for each batch as quality control.
Representative results from this assay are listed in Table 2 below together with corresponding data for two structural analogs having an unsubstituted methyl group in 6-position of the 1,4-dihydropyridine ring (comparative Examples A and B, see experimental section above; disclosed generically in WO 2008/071451-A1): […]
(Caco-2 monolayers are a common model of the intestinal barrier.)

As for `Cc1n[nH]c2ccc(C3C(C#N)=C(c4ccc(F)cc4)NC(C(F)F)=C3C#N)cc12` (racemic) [Example 6], the Papp at 2 h, 2 μM was determined as 15 ×10⁻⁶ cm/s. Take `Cc1n[nH]c2ccc(C3C(C#N)=C(c4ccc(F)cc4)NC(C(F)(F)F)=C3C#N)cc12` (racemic) [Example 13]: the Papp at 2 h, 2 μM came to 15.8 ×10⁻⁶ cm/s.

Turning to `COc1ccc(C2=C(C#N)C(c3ccc4[nH]nc(C)c4c3)C(C#N)=C(C)N2)cc1` (racemic) [Example A, 2-(4-Methoxyphenyl)-6-methyl-4-(3-methyl-1H-indazol-5-yl)-1,4-dihydropyridine-3,5-dicarbonitrile, reference compound], the Papp at 2 h, 2 μM was determined as 9.9 ×10⁻⁶ cm/s. The figure for `CC1=C(C#N)C(c2ccc3[nH]nc(C)c3c2)C(C#N)=C(c2ccc(F)cc2)N1` (racemic) [Example B, 2-(4-Fluorophenyl)-6-methyl-4-(3-methyl-1H-indazol-5-yl)-1,4-dihydropyridine-3,5-dicarbonitrile, reference compound] is 6.2 ×10⁻⁶ cm/s; for `COc1ccc(C2=C(C#N)C(c3ccc4[nH]nc(C)c4c3)C(C#N)=C(C(F)F)N2)cc1` (centres unmarked) [Example 8] it is 17 ×10⁻⁶ cm/s.

The record behind these values is patent publication US9018234B2, “Fluoro-substituted 2-aryl-3,5-dicyano-4-indazolyl-6-methyl-1,4-dihydropyridines and uses thereof” (Bayer Intellectual Property GmbH, priority 2009, dated 2015).
